Results on 74 compounds are retold here after PubChem BioAssay AID687022 (Broad Institute, 2013).

This assay concerns the target Fibroblast growth factor 22 (Homo sapiens) (UniProt Q9HCT0). Briefly: binders of human FGF22 protein, dose response, FGF22 synaptogenesis inhibitor project, biophysical, thermal shift, cherry-pick (AID 687022). The note with it: recombinant FGF22 thermal shift, SYPRO orange melting.

The source made the active and inactive calls.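 The calls were made as follows: active = Fitted curve of melting temperature shift crosses the 1.0 threshold at or below the sample's highest valid tested concentration; inconclusive = Flat fit with activity 30 to 70, or invalid fit; inactive = Opposite direction, flat within 30, or no crossing.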

Fibroblast growth factor 22 (Homo sapiens), sequence (Q9HCT0 whole entry, looked up): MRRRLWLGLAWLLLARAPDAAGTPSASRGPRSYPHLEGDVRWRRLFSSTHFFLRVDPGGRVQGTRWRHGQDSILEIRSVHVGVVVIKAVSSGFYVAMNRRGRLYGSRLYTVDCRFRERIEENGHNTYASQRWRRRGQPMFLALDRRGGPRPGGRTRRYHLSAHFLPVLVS

For the compound `Oc1ccc(-c2nnc(Nc3cccc(O)c3)c3ccccc23)cc1`, the AbsAC1 (concentration giving Tm-shift threshold 1.0) was 5.28 µM.

On to `Cn1c(=O)c2c(-c3ccccc3)n(-c3cc(Cl)c([N+](=O)[O-])cc3O)cc2n(C)c1=O`, for which the AbsAC1 (concentration giving Tm-shift threshold 1.0) was 2.38 µM.

For the compound `Brc1ccccc1/C=N/Nc1ccccn1`, the AbsAC1 (concentration giving Tm-shift threshold 1.0) is 9.78 µM.

With `COc1ccccc1NC(=O)N[C@@H]1CC[C@@H](CCn2cc(-c3ccccc3OC)nn2)O[C@@H]1CO`, the AbsAC1 (concentration giving Tm-shift threshold 1.0) is 4.76 µM.

On to `COc1ccc(/C=N/Nc2ccc([N+](=O)[O-])cc2)cc1O`, for which the AbsAC1 (concentration giving Tm-shift threshold 1.0) was 4.37 µM.

For the compound `O=Cc1cc(OCc2ccccc2)ccc1[B-](F)(F)F`, the AbsAC1 (concentration giving Tm-shift threshold 1.0) is 4.64 µM.

Consider `N#CC(C#N)=C1NC(N)=C(C#N)C(c2ccccc2)=C1C#N`, for which the AbsAC1 (concentration giving Tm-shift threshold 1.0) is 4.02 µM.

As for `O=C(Nc1cc(Cl)cc(Cl)c1)N[C@@H]1CC[C@@H](CCNS(=O)(=O)c2cccc(F)c2)O[C@H]1CO`, the AbsAC1 (concentration giving Tm-shift threshold 1.0) was 5.67 µM.

For the compound `O=C(N/N=C/c1ccc(Cl)c(Cl)c1)c1ccc2nc[nH]c2c1`, the AbsAC1 (concentration giving Tm-shift threshold 1.0) was 2.35 µM.

With `O=C(N/N=C/c1ccc(C(F)(F)F)cc1)c1ccc(O)cc1`, the AbsAC1 (concentration giving Tm-shift threshold 1.0) is 2.48 µM.

For the compound `O=c1ccc2nc3ccccc3sc-2c1`, the AbsAC1 (concentration giving Tm-shift threshold 1.0) was 8.27 µM.

Turning to `C/C=C/c1ccc2c(c1)O[C@H](CN(C)C(=O)Nc1cc(F)ccc1F)[C@H](C)CN([C@H](C)CO)S2(=O)=O`, the AbsAC1 (concentration giving Tm-shift threshold 1.0) is > 42 µM (inactive).

As for `NC(=O)c1ccsc1NC(=O)COC(=O)Cc1c[nH]c2ccccc12`, the AbsAC1 (concentration giving Tm-shift threshold 1.0) is 13.9 µM.

On to `Cc1ccc(-c2n[nH]c(=S)n2/N=C/c2c(C)[nH]n(-c3ccccc3)c2=O)cc1`, for which the AbsAC1 (concentration giving Tm-shift threshold 1.0) is 4.65 µM.

Consider `COc1ccc2c(CC(=O)NNC(=O)c3ccc(O)cc3)coc2c1`, for which the AbsAC1 (concentration giving Tm-shift threshold 1.0) was 3.22 µM.

Regarding `C[C@@H]1CN([C@H](C)CO)S(=O)(=O)c2ccc(-c3ccc(F)cc3)cc2O[C@@H]1CN(C)C(=O)Nc1ccccc1F`, the AbsAC1 (concentration giving Tm-shift threshold 1.0) is 22.1 µM.

`O=C(O)c1cccc(NS(=O)(=O)c2ccc(Cl)c(C(=O)Nc3cccc([N+](=O)[O-])c3)c2)c1`: the AbsAC1 (concentration giving Tm-shift threshold 1.0) was 11.9 µM.

In the case of `Cc1cc(NC(=O)Nc2ccc3c(ccn3C)c2)sn1`, the AbsAC1 (concentration giving Tm-shift threshold 1.0) was 3.42 µM.

In the case of `O=C(N/N=C/c1c[nH]c2ccccc12)c1ccc(O)c(O)c1`, the AbsAC1 (concentration giving Tm-shift threshold 1.0) is 3.74 µM.

As to `CC(=O)Nc1cccc(C(=O)N/N=C/c2c[nH]c3ccccc23)c1`, the AbsAC1 (concentration giving Tm-shift threshold 1.0) is 2.4 µM.

For the compound `Cc1onc(-c2ccccc2)c1C(=O)Nc1ncc([N+](=O)[O-])s1`, the AbsAC1 (concentration giving Tm-shift threshold 1.0) is 17.1 µM.

For the compound `COc1ccc(-c2cn(CC[C@H]3CC[C@H](NC(=O)Nc4ccc(F)cc4)[C@@H](CO)O3)nn2)cc1`, the AbsAC1 (concentration giving Tm-shift threshold 1.0) was 18 µM.

Regarding `COc1ccc(-c2nc3ccc([N+](=O)[O-])cc3[nH]2)cc1`, the AbsAC1 (concentration giving Tm-shift threshold 1.0) is 1.99 µM.

Regarding `CCc1ccc(N2CC(C(=O)OCC(=O)Nc3ccc(C#N)cc3)CC2=O)cc1` (centres undefined), the AbsAC1 (concentration giving Tm-shift threshold 1.0) is 20.8 µM.

With `CCOC(=O)N1CCN(C(=O)CCCCCn2c(=S)[nH]c3ccsc3c2=O)CC1`, the AbsAC1 (concentration giving Tm-shift threshold 1.0) was 13.8 µM.

As to `O=C(Nc1ccc(Cl)cc1)N[C@H]1CC[C@H](CCNC(=O)c2cc(Cl)cc(Cl)c2)O[C@@H]1CO`, the AbsAC1 (concentration giving Tm-shift threshold 1.0) is 34.9 µM.

For the compound `O=C(CCc1c[nH]c2ccccc12)Nc1ccc(Oc2cccnc2)cc1`, the AbsAC1 (concentration giving Tm-shift threshold 1.0) was 7.99 µM.

Turning to `CS(=O)(=O)N1CC(=O)N2[C@H](CO)[C@@H](c3ccc(C#CCc4ccccc4)cc3)[C@H]2C1`, the AbsAC1 (concentration giving Tm-shift threshold 1.0) is 37.5 µM.

`O=C(N/N=C/c1ccc(O)cc1)c1cccc(N/N=C/c2ccc(O)cc2)c1`: the AbsAC1 (concentration giving Tm-shift threshold 1.0) was 5.77 µM.

Turning to `CCc1nnc(NS(=O)(=O)c2ccc(NC(=S)NC(=O)/C=C/c3ccc([N+](=O)[O-])cc3)cc2)s1`, the AbsAC1 (concentration giving Tm-shift threshold 1.0) is 4.73 µM.

Take `C[C@@H]1CN([C@@H](C)CO)S(=O)(=O)c2ccc(-c3ccncc3)cc2O[C@@H]1CN(C)C(=O)Nc1ccc(C(F)(F)F)cc1`: the AbsAC1 (concentration giving Tm-shift threshold 1.0) is 1.96 µM.

On to `COc1ccccc1CNC(=O)C[C@H]1CC[C@@H]2[C@H](COC[C@H](O)CN2C(=O)Nc2ccc(Cl)cc2)O1`, for which the AbsAC1 (concentration giving Tm-shift threshold 1.0) was 30.5 µM.

Consider `CCOC(=O)c1sc(N2C(=O)C(O)=C(C(=O)c3ccco3)C2c2ccc([N+](=O)[O-])cc2)nc1C` (centres undefined), for which the AbsAC1 (concentration giving Tm-shift threshold 1.0) was 5.28 µM.

Consider `O=C(NCC[C@@H]1CC[C@@H](NC(=O)Nc2cc(F)ccc2F)[C@@H](CO)O1)Nc1ccc(F)cc1`, for which the AbsAC1 (concentration giving Tm-shift threshold 1.0) is 18.1 µM.

In the case of `Cc1ccc(NC(=O)c2ccc(OCc3c(C)noc3C)cc2)c(C)c1`, the AbsAC1 (concentration giving Tm-shift threshold 1.0) is 2.58 µM.

`S=C(Nc1ccc(N2CCOCC2)cc1)Nc1ccc2snnc2c1`: the AbsAC1 (concentration giving Tm-shift threshold 1.0) was 9.95 µM.

On to `O=C(NCc1ccc(Cl)cc1)c1n[nH]c([N+](=O)[O-])c1Cl`, for which the AbsAC1 (concentration giving Tm-shift threshold 1.0) was 5.18 µM.

With `COc1ccc2cc(CCNC(=O)c3cc4ccccc4o3)c(=O)[nH]c2c1`, the AbsAC1 (concentration giving Tm-shift threshold 1.0) was 11.3 µM.

Turning to `COc1cc(OC)cc(C(=O)Nc2ccc(S(=O)(=O)Nc3nc(C)cc(C)n3)cc2)c1`, the AbsAC1 (concentration giving Tm-shift threshold 1.0) is 15.5 µM.

`COc1ccc(-c2ccc([C@@H]3[C@@H](CO)N4CCCCN(C(=O)c5ccc(F)cc5)C[C@@H]34)cc2)cc1`: the AbsAC1 (concentration giving Tm-shift threshold 1.0) is 3.54 µM.

Turning to `N/C(=N\OCC(=O)Nc1ccc(F)c(Cl)c1)c1ccccc1`, the AbsAC1 (concentration giving Tm-shift threshold 1.0) is 4.58 µM.

As to `COc1ccc(N(C)S(=O)(=O)c2cccc(C(=O)Nc3ccc(N4CCOCC4)cc3)c2)cc1`, the AbsAC1 (concentration giving Tm-shift threshold 1.0) is 9 µM.

For the compound `CC(=O)c1c(C)nc(-c2ccc(OCC(=O)Nc3cccc(C)c3C)cc2)n1O`, the AbsAC1 (concentration giving Tm-shift threshold 1.0) was 29.7 µM.

`NS(=O)(=O)c1cccc(NC(=O)COC(=O)c2cc([N+](=O)[O-])ccc2N2CCCC2)c1`: the AbsAC1 (concentration giving Tm-shift threshold 1.0) was 5.86 µM.

On to `O=C(Nc1nccs1)C1CC(=O)N(c2ccc(F)cc2)C1` (centres undefined), for which the AbsAC1 (concentration giving Tm-shift threshold 1.0) is 8.93 µM.

In the case of `Nc1ccccc1N=Nc1ccccc1N`, the AbsAC1 (concentration giving Tm-shift threshold 1.0) is 7.75 µM.

For the compound `C/C(=N\NC(=O)c1cccc(S(=O)(=O)N2CCOCC2)c1)c1ccc(OC(F)F)cc1`, the AbsAC1 (concentration giving Tm-shift threshold 1.0) is 21.9 µM.

For `C[C@H](CO)N1C[C@H](C)[C@H](CN(C)C(=O)Nc2ccc3c(c2)OCO3)Oc2cc(C3=CCCC3)ccc2S1(=O)=O`, the AbsAC1 (concentration giving Tm-shift threshold 1.0) was 36.2 µM.

For the compound `C/C=C/c1ccc2c(c1)O[C@@H](CN(C)C(=O)Nc1ccc(F)cc1)[C@@H](C)CN([C@H](C)CO)S2(=O)=O`, the AbsAC1 (concentration giving Tm-shift threshold 1.0) was 14.8 µM.

As to `COC(=O)C[C@H]1CC[C@@H]2[C@@H](COc3ccc(NC(=O)Nc4cccc(C#N)c4)cc3C(=O)N2C)O1`, the AbsAC1 (concentration giving Tm-shift threshold 1.0) is 7.79 µM.

For the compound `CCCC(=O)c1ccc(OCc2cn(CC(=O)c3ccc(O)cc3)nn2)cc1`, the AbsAC1 (concentration giving Tm-shift threshold 1.0) is 8.45 µM.

Turning to `COc1ccc(N2C(=O)C(CC(=O)Nc3ccccc3)N(Cc3ccccn3)C2=S)cc1` (centres undefined), the AbsAC1 (concentration giving Tm-shift threshold 1.0) is 9.43 µM.

`O=C(Cn1cc(COc2ccc(Br)cc2)nn1)c1ccc(O)cc1`: the AbsAC1 (concentration giving Tm-shift threshold 1.0) is 7.63 µM.

With `COC12CC(=O)C(C(C)=O)=C(O)C1(C)c1c(O)c(C)c(O)c(C(C)=O)c1O2` (centres undefined), the AbsAC1 (concentration giving Tm-shift threshold 1.0) is 6.77 µM.

Turning to `O=C1Nc2cc(Cl)c(Cl)cc2N(O)N1c1ccc(Cl)cc1`, the AbsAC1 (concentration giving Tm-shift threshold 1.0) is 4.98 µM.

For the compound `Cc1ccc(S(=O)(=O)N(C)C[C@@H]2Oc3cc(Br)ccc3S(=O)(=O)N([C@@H](C)CO)C[C@H]2C)cc1`, the AbsAC1 (concentration giving Tm-shift threshold 1.0) is 29.2 µM.

Regarding `COc1ccc(C(=O)N2CCCCC2)cc1S(=O)(=O)Nc1cccc(C(=O)O)c1`, the AbsAC1 (concentration giving Tm-shift threshold 1.0) was 9.12 µM.

Take `C[C@@H]1CN([C@@H](C)CO)C(=O)c2cc(NS(=O)(=O)c3ccc(Cl)cc3)ccc2O[C@@H]1CN(C)S(=O)(=O)c1ccc(F)cc1`: the AbsAC1 (concentration giving Tm-shift threshold 1.0) is 21.9 µM.

With `COC(=O)CN1C(=S)N(c2ccc(F)cc2)C(=O)C1CC(=O)Nc1ccccc1` (centres undefined), the AbsAC1 (concentration giving Tm-shift threshold 1.0) is 16.1 µM.

`COc1cccc(NC(=O)CN(C)C(=O)c2ccc(N3CCCCC3)c([N+](=O)[O-])c2)c1`: the AbsAC1 (concentration giving Tm-shift threshold 1.0) is 11.4 µM.

Take `Cn1cc([N+](=O)[O-])c(C(=O)Nc2ccc3nc(-c4ccccc4)[nH]c3c2)n1`: the AbsAC1 (concentration giving Tm-shift threshold 1.0) was 16 µM.

For `O=C(C[C@@H]1CC[C@H]2[C@@H](COC[C@@H](O)CN2S(=O)(=O)c2cccc(F)c2)O1)Nc1ccccc1`, the AbsAC1 (concentration giving Tm-shift threshold 1.0) was 3.53 µM.

`Cc1cc(C)n(-c2ccc(C(=O)Nc3ccc(S(=O)(=O)N(C)C)cc3)cc2)n1`: the AbsAC1 (concentration giving Tm-shift threshold 1.0) is 9.32 µM.

Take `O=C(Nc1ccc(S(=O)(=O)N2CCCC2)cc1)c1cccs1`: the AbsAC1 (concentration giving Tm-shift threshold 1.0) was 9.33 µM.

Consider `Oc1cc(O)cc(-c2cc3ccc(O)cc3o2)c1`, for which the AbsAC1 (concentration giving Tm-shift threshold 1.0) is 14.9 µM.

As to `CC(=O)Nc1ccc(/C(C)=N/Nc2nc(Nc3ccccc3)nc(N3CCOCC3)n2)cc1`, the AbsAC1 (concentration giving Tm-shift threshold 1.0) was 7.91 µM.

For `CC1([N+](=O)[O-])COP(=O)(NC2CC2)OC1` (centres undefined), the AbsAC1 (concentration giving Tm-shift threshold 1.0) was 8.33 µM.

For `CC(=O)Nc1ccc(NC(=O)Nc2ccccc2)cc1`, the AbsAC1 (concentration giving Tm-shift threshold 1.0) was 2.14 µM.

As to `O=C(Nc1cc(Cl)cc(Cl)c1)N[C@@H]1CC[C@@H](CCNS(=O)(=O)c2cccc(F)c2)O[C@@H]1CO`, the AbsAC1 (concentration giving Tm-shift threshold 1.0) was 5.64 µM.

For the compound `Cc1ccc(NC(=O)O/N=C/c2cccc([N+](=O)[O-])c2)cc1`, the AbsAC1 (concentration giving Tm-shift threshold 1.0) is 17.8 µM.

`CCC(C)n1c(O)c(C(c2ccccn2)c2c(O)n(C(C)CC)c(=S)[nH]c2=O)c(=O)[nH]c1=S` (centres undefined): the AbsAC1 (concentration giving Tm-shift threshold 1.0) was 20.7 µM.

`O=C(CCc1ccccc1)c1c(O)cc(O)cc1O`: the AbsAC1 (concentration giving Tm-shift threshold 1.0) was > 5 µM (inactive).

Take `Cc1ccc(NC(=O)CN2C(=O)NC(Cc3c[nH]c4ccccc34)C2=O)cc1` (centres undefined): the AbsAC1 (concentration giving Tm-shift threshold 1.0) was 16.2 µM.

On to `CC(=O)c1ccc(NC(=O)c2noc(C(C)C)c2[N+](=O)[O-])cc1`, for which the AbsAC1 (concentration giving Tm-shift threshold 1.0) is 3.85 µM.
